Measured values: publication PMC10820264, “Combining Experimental and Computational Methods to Produce Conjugates of Anticholinesterase and Antioxidant Pharmacophores with Linker Chemistries Affecting Biological Activities Related to Treatment of Alzheimer’s Disease” (Molecules, 2024)
Read-outs that look alike come from different tables or passages of the source. Marks after values point to notes of the source that are not given here.

Experiments:
[1] = biological target: T1, peripheral anionic site of Electrophorus electricus AChE (EeAChE) (Electrophorus electricus, UniProt O42275); design: method as in PMID 33322783; conditions: compound 20 μM; cited from earlier work
equine serum BChE [2] = biological target: T2, equine serum BChE (Equus caballus, UniProt P81908); design: method as in PMID 33322783; conditions: cited from earlier work
[3] = design: method as in PMID 33322783; conditions: Trolox equivalents; cited from earlier work
[4] = design: method as in PMID 33322783; conditions: Trolox equivalents; cited from earlier work; remark: listed apart in the source
Porcine liver CES [5] = test system: Porcine liver CES; design: method as in PMID 33322783; conditions: cited from earlier work
[6] = ABTS radical cation scavenging assay
Human erythrocyte AChE [7] = biological target: T3, Human erythrocyte AChE (Homo sapiens, UniProt P22303); design: method as in PMID 33322783; conditions: cited from earlier work
eqBChE [8] = biological target: T4, eqBChE (Equus caballus, UniProt P81908); design: method as in PMID 33322783; conditions: cited from earlier work
AChE [9] = biological target: T5, AChE (Homo sapiens, UniProt P22303); design: method as in PMID 33322783; conditions: cited from earlier work
[10] = Ferric-reducing antioxidant power (FRAP) assay; conditions: Trolox equivalents
[11] = test system: free radicals in mouse brain homogenate (TBHP-initiated); assay type: biochemical; conditions: read-out: Radical Scavenging Capacity, Luminol Chemiluminescence Assay IC50
[12] = test system: spontaneous lipid peroxidation in mouse brain homogenate; assay type: biochemical; conditions: read-out: Inhibition of Spontaneous Lipid Peroxidation in Mouse Brain Homogenate, TBARS Assay IC50
eqBChE [13] = biological target: T4, eqBChE; assay: biochemical; assay type: biochemical
Description: (§1) A mechanism of AChE and BChE inhibition was assessed by a detailed analysis of enzyme kinetics with three increasing concentrations of inhibitor and six substrate concentrations, as described in detail in [72].

AChE [14] = biological target: T5, AChE; assay: biochemical; assay type: biochemical
Description: as §1

Porcine liver CES [15] = assay: CES inhibition, spectrophotometric, 4-NPA substrate; assay type: biochemical
Description: (§2) Human erythrocyte AChE and equine serum BChE were purchased from Milamed (Perm, Russia). Porcine liver CES, substrates, and reference compounds were from Sigma-Aldrich (St. Louis, MO, USA). The activity of enzymes was measured spectrophotometrically, as described in detail in [72] using ATCh iodide, BTCh iodide, and 4-NPA as substrates for AChE, BChE, and CES, respectively. Experimental conditions: K,Na—phosphate buffer (100 mM), 25 °C, pH 7.5 for AChE and BChE and pH 8.0 for CES assay. Measurements were carried out on a FLUOStar Optima microplate reader (BMG Labtech, Ortenberg, Germany).
Test compounds were dissolved in DMSO; the final concentration of solvent in the incubation mixture was 2% (v/v). […]

Aβ42 = Aβ42 (Homo sapiens, UniProt P05067); assay: Inhibition of Aβ42 self-aggregation, thioflavin T fluorescence; assay type: biochemical; conditions: Aβ42 50 µM, compound 100 µM; read-out: Inhibition of Aβ42 Self-Aggregation
Human erythrocyte AChE [16] = biological target: T3, Human erythrocyte AChE; assay: biochemical; assay type: biochemical
Description: as §2
(§3) Test compounds were dissolved in DMSO; the final concentration of solvent in the incubation mixture was 2% (v/v).

equine serum BChE [17] = biological target: T2, equine serum BChE; assay: biochemical; assay type: biochemical
Description: as §2, §3

[18] = biological target: T1, peripheral anionic site of Electrophorus electricus AChE (EeAChE); assay type: binding
[19] = read-out: eqBChE Ki (competitive inhibition constant)
[20] = read-out: AChE Ki (competitive inhibition constant)

T1 sequence (O42275 24-633): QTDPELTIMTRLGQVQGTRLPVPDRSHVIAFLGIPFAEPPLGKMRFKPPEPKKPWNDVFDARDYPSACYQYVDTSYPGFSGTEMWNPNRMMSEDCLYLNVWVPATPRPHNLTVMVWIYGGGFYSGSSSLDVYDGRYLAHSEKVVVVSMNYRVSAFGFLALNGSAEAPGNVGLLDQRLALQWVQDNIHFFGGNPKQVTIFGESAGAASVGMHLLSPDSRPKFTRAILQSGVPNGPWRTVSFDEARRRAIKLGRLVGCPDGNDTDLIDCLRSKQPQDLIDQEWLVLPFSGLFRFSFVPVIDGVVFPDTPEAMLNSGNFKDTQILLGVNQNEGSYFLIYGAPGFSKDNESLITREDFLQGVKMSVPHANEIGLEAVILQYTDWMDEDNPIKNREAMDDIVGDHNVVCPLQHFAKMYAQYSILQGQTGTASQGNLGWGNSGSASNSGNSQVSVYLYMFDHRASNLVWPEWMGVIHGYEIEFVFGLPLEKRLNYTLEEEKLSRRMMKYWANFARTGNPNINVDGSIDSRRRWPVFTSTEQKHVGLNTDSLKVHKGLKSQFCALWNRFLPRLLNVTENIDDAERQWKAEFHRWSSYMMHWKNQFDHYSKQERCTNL
T4 sequence (P81908 whole entry): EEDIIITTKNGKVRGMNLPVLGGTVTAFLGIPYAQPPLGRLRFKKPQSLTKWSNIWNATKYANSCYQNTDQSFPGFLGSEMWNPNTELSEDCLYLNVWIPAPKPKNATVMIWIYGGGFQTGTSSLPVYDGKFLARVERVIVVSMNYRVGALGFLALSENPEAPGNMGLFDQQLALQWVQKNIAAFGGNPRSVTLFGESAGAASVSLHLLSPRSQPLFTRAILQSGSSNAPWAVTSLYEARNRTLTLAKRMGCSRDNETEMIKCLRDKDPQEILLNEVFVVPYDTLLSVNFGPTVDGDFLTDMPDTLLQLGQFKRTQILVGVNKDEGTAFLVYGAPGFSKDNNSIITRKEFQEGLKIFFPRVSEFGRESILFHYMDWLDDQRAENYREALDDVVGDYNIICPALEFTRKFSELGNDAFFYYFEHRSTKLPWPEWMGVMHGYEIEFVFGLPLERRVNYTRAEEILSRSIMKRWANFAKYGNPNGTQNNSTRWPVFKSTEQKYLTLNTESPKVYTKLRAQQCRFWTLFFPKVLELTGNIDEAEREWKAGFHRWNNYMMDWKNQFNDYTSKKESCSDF
T2 sequence (P81908 whole entry): as above
T3 sequence (P22303 other isoform, or with tags, fused parts or gaps): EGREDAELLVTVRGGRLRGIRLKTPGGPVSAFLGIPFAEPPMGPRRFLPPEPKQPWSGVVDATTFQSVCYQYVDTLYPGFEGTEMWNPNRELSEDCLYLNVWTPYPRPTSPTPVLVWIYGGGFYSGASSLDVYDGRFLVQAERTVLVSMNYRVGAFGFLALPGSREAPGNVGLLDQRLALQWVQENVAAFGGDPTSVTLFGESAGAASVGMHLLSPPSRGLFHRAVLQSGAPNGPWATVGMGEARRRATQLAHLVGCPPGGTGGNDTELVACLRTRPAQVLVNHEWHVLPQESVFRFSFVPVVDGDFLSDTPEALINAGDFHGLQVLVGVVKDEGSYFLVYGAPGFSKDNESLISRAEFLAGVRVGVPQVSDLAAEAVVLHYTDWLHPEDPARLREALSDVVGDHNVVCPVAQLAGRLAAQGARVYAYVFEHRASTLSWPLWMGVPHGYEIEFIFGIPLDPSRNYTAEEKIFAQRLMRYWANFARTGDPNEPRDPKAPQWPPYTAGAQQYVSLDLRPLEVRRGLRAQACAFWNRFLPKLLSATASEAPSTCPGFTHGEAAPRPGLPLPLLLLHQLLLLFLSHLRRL
T5 sequence (P22303 other isoform, or with tags, fused parts or gaps): as above
Aβ42, sequence (P05067 672-713): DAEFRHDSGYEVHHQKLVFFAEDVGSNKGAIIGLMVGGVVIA

Compound	Propidium Displacement [1]	IC50 (equine serum BChE [2]) [µM]	Ferric-Reducing Antioxidant Power TE [3]	ABTS•+-Scavenging Activity TEAC [4]	CES % inhibition at 20 μM (Porcine liver CES [5])	IC50 [6] [µM]	IC50 (Human erythrocyte AChE [7]) [µM]	Ferric-Reducing Antioxidant Power TE [10]	also measured
CC(C)(C)c1cc(/C=N/CCNc2c3c(nc4ccccc24)CCC3)cc(C(C)(C)C)c1O [13a]	18.1 ± 1.6 ^a,*^,§ %	1.92 ± 0.11	0.51 ± 0.03 ^a,***	0.92 ± 0.03 ^a	26.1 ± 0.7% ^a,***	22.3 ± 1.5	4.86 ± 0.01		
CC(C)(C)c1cc(/C=N/CCNc2c3c(nc4ccccc24)CCCC3)cc(C(C)(C)C)c1O [14a]	18.2 ± 1.6 ^a,*^,§ %	1.61 ± 0.04	0.58 ± 0.03 ^a,***	1.13 ± 0.05 ^a	28.6 ± 1.6% ^a,***	17.8 ± 1.5	5.98 ± 0.131		
CC(C)(C)c1cc(/C=N/CCNc2c3c(nc4ccccc24)CCCCC3)cc(C(C)(C)C)c1O [15a]	16.3 ± 1.3 ^a %	0.419 ± 0.04	0.52 ± 0.01 ^a,***	1.11 ± 0.04 ^a	30.1 ± 2.5% ^a,***	18.8 ± 0.8	4.03 ± 0.03		eqBChE αKi (non-competitive inhibition constant) (eqBChE [8]): 437 ± 10 ^b,*** nM; Ki (eqBChE [8]; [19]): 0.164 ± 0.005 µM; AChE αKi (non-competitive inhibition constant) (AChE [9]): 4300 ± 20 ^b,* nM; Ki (AChE [9]; [20]): 1.58 ± 0.1 µM
CC(C)(C)c1cc(CNCCNc2c3c(nc4ccccc24)CCC3)cc(C(C)(C)C)c1O [16a]	16.4 ± 1.4 ^a %			1.39 ± 0.05 ^a,***	19.6 ± 1.3% ^a,***	14.6 ± 0.8		0.57 ± 0.02	
CC(C)(C)c1cc(CNCCNc2c3c(nc4ccccc24)CCCCC3)cc(C(C)(C)C)c1O [18a]	13.6 ± 1.2 ^a %			1.35 ± 0.06 ^a,***	26.0 ± 3.9% ^a,*	15.3 ± 0.6		0.44 ± 0.06	
CC(C)(C)c1cc(CNCCCCCCCCNc2c3c(nc4ccccc24)CCCCC3)cc(C(C)(C)C)c1O [18d, 2,6-Di-tert-butyl-4-{[8-(7,8,9,10-tetrahydro-6H-cyclohepta[b]quinolin-11-ylamino)-octylamino]-methyl}-phenol]						15.8 ± 0.6		0.45 ± 0.01	IC50 [11]: 9.2 ± 0.6 µM; IC50 [12]: 20.2 ± 3.3 µM; eqBChE αKi (non-competitive inhibition constant) (eqBChE [13]): 6.06 ± 0.41 nM; Ki (eqBChE [13]; [19]): 0.00425 ± 0.00033 µM; AChE αKi (non-competitive inhibition constant) (AChE [14]): 25.1 ± 0.2 nM; Ki (AChE [14]; [20]): 0.013 ± 0.001 µM; CES % inhibition at 20 μM (Porcine liver CES [15]): 13.9 ± 1.2%; time to reach the activity level of Trolox in ABTS radical scavenging ([6]; compound at 20 μM (IC50 of Trolox)): less than 1 min; inhibition at 100 µM (Aβ42): 59.6 ± 4.7%; IC50 (Human erythrocyte AChE [16]): 0.0308 ± 0.0002 µM; IC50 (equine serum BChE [17]): 0.00596 ± 0.00058 µM; BChE activity relative to tacrine (times more active) (equine serum BChE [17]; vs tacrine): 5 times; Propidium Displacement [18]: 12.3 ± 0.8%
